Test systems include COLO 205 colon; RPMI-8226 leukemia; M14 melanoma; LOX IMVI melanoma; KM12 colon; TK-10 renal; HCT-116 colon; NCI-H522 lung; CCRF-CEM leukemia; DU-145 prostate.
Common to all, as to assay: NCI-60 cell line screen, 48 h

“And” between values parts separate entries of the source, which are not always exact repeats. Equal values may be shown once.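 Where inhibition never reached the appropriate level, the endpoint shown equals the highest concentration tested. Otherwise, values were interpolated linearly from a five-concentration, 48-hour dose response in 96-well plates. At the GI50, growth is halved. TGI denotes the concentration required for complete inhibition of growth.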

Consider `C=CCCCCCCCCCCC1(O)C=CC2=[N+](CCCCCN=C(N)N)CCCN21` (stereo not given), for which the GI50 is 2.78 µM with COLO 205 colon; 2.61 µM in the test on RPMI-8226 leukemia; 22.8 µM in the test on M14 melanoma; 6.3 µM in the test with LOX IMVI melanoma; 3.42 µM in the test with KM12 colon; 1.33 µM with TK-10 renal. The GI50 in the test with HCT-116 colon is 12.4 µM; in the test with NCI-H522 lung, 3.6 µM; with CCRF-CEM leukemia, 8.57 µM; in the test on DU-145 prostate, 12.2 µM. In addition, the TGI is 13.9 µM in the test with COLO 205 colon; 29.5 µM with RPMI-8226 leukemia; more than 51.5 µM in the test on M14 melanoma; 26 µM in the test with LOX IMVI melanoma; 18.7 µM in the test on KM12 colon; 4.56 µM with TK-10 renal. Besides, the TGI with HCT-116 colon is more than 45.2 µM; with NCI-H522 lung it was 18.4 µM; in the test on CCRF-CEM leukemia it was 40.3 µM; with DU-145 prostate, 26.6 µM.

Regarding `COc1ccccc1N1CCN(CCCn2c(=O)c3c(OC)nc(C)cc3c(=O)n2-c2ccccc2)CC1`, the GI50 in the test on COLO 205 colon, in the test with RPMI-8226 leukemia, in the test with M14 melanoma, in the test with LOX IMVI melanoma, in the test on KM12 colon and in the test with TK-10 renal was more than 100 µM in each case. Besides, the GI50 in the test on HCT-116 colon, in the test with NCI-H522 lung, in the test on CCRF-CEM leukemia and in the test on DU-145 prostate was more than 100 µM each time. The TGI in the test on COLO 205 colon, in the test with RPMI-8226 leukemia, in the test with M14 melanoma, in the test on LOX IMVI melanoma, in the test with KM12 colon and with TK-10 renal was more than 100 µM throughout. Moreover, the TGI in the test on HCT-116 colon, with NCI-H522 lung, in the test on CCRF-CEM leukemia and in the test on DU-145 prostate was more than 100 µM each time.

As for `CC1(C)OCCn2c1nc1c(N3CCOCC3)nc(-c3cnc(N)nc3)nc12`, the GI50 with COLO 205 colon was 0.217 µM; with RPMI-8226 leukemia, 2.14 µM; in the test on M14 melanoma, 0.316 µM; in the test with LOX IMVI melanoma, 0.265 µM; with KM12 colon it was 0.761 µM; in the test with TK-10 renal, 0.109 µM. The GI50 with HCT-116 colon is 0.337 µM; with NCI-H522 lung, 0.415 µM; with CCRF-CEM leukemia, 1.06 µM; in the test on DU-145 prostate, 0.354 µM. The TGI in the test on COLO 205 colon was 5.95 µM; in the test on RPMI-8226 leukemia, 12.5 µM; in the test with M14 melanoma, more than 100 µM; in the test on LOX IMVI melanoma, more than 27.4 µM; with KM12 colon it was more than 100 µM; in the test on TK-10 renal it was 0.676 µM. Further, the TGI was more than 100 µM in the test on HCT-116 colon, 40.8 µM in the test with NCI-H522 lung, more than 100 µM with CCRF-CEM leukemia and more than 100 µM in the test on DU-145 prostate.

With `Oc1cc(O)c2c(c1)OC(c1ccc(O)c(O)c1)C(OC1(c3cc(O)c(O)c(O)c3)Oc3cc(O)cc(O)c3C(O)C1O)C2` (stereo not given), the TGI is more than 85.9 µM in the test with COLO 205 colon; 49.5 µM in the test on RPMI-8226 leukemia; more than 65.6 µM in the test on M14 melanoma; 38.4 µM in the test with LOX IMVI melanoma; more than 70.9 µM in the test on KM12 colon; more than 100 µM in the test on TK-10 renal. Besides, the TGI in the test on HCT-116 colon was 62 µM; in the test with NCI-H522 lung, 49.7 µM; with CCRF-CEM leukemia, 43.7 µM; in the test with DU-145 prostate, more than 75.5 µM.

On to `CC(=O)c1cc2c(o1)C(=O)c1ccccc1C2=O`, for which the GI50 in the test with COLO 205 colon was 0.192 µM and 1.72 µM; in the test with RPMI-8226 leukemia, 0.731 µM and 0.917 µM; in the test on M14 melanoma it was 0.169 µM and 0.183 µM; with LOX IMVI melanoma it was 0.121 µM and 0.187 µM; in the test on KM12 colon, 0.543 µM and 0.713 µM; in the test on TK-10 renal, 0.248 µM and 1.4 µM. The GI50 was 0.226 µM and 0.267 µM in the test with HCT-116 colon; 0.19 µM and 0.194 µM in the test on NCI-H522 lung; 0.403 µM and 1.02 µM in the test on CCRF-CEM leukemia; 0.174 µM and 0.186 µM in the test on DU-145 prostate. Further, the TGI in the test with COLO 205 colon was 0.374 µM and 3.44 µM; in the test on RPMI-8226 leukemia, 1.8 µM and 3.86 µM; with M14 melanoma it was 0.322 µM and 0.345 µM; in the test with LOX IMVI melanoma it was 0.323 µM and 0.438 µM; in the test on KM12 colon, 1.62 µM and 2.09 µM; with TK-10 renal, 0.595 µM and 2.9 µM. For the same compound, the TGI in the test with HCT-116 colon is 0.544 µM and 0.805 µM; in the test on NCI-H522 lung it was 0.413 µM and 0.495 µM; with CCRF-CEM leukemia it was more than 100 µM; with DU-145 prostate, 0.32 µM and 0.331 µM.

Regarding `CC(CC(=O)O)C(C(=O)O)C(=O)O` (stereo not given), the TGI in the test with COLO 205 colon, in the test on RPMI-8226 leukemia, with M14 melanoma, with LOX IMVI melanoma, in the test on KM12 colon and with TK-10 renal was more than 100 µM in each case. Further, the TGI with HCT-116 colon, in the test with NCI-H522 lung, in the test on CCRF-CEM leukemia and with DU-145 prostate was more than 100 µM each time.

For the compound `Cc1ccc(-c2nc3ccc([N+](=O)[O-])cc3[nH]2)cc1`, the TGI with COLO 205 colon, in the test on RPMI-8226 leukemia, in the test on M14 melanoma, in the test with LOX IMVI melanoma, with KM12 colon and in the test on TK-10 renal was more than 100 µM each time. Besides, the TGI in the test on HCT-116 colon, in the test with NCI-H522 lung, in the test on CCRF-CEM leukemia and with DU-145 prostate was more than 100 µM throughout.

For `Cc1ccc(Cl)cc1Nc1nc(C(F)(F)F)ccc1C(=O)N1CCN(c2cccc(Cl)c2)CC1`, the GI50 in the test with COLO 205 colon was more than 100 µM; in the test with RPMI-8226 leukemia it was 33.2 µM; in the test on M14 melanoma it was more than 100 µM; with LOX IMVI melanoma it was more than 100 µM; with KM12 colon it was more than 100 µM; in the test with TK-10 renal it was more than 100 µM. The GI50 in the test on HCT-116 colon is 37.9 µM; in the test on NCI-H522 lung, 89.7 µM; in the test with CCRF-CEM leukemia, more than 100 µM; in the test on DU-145 prostate, more than 100 µM. For the same compound, the TGI in the test with COLO 205 colon, in the test with RPMI-8226 leukemia, in the test on M14 melanoma, with LOX IMVI melanoma, in the test with KM12 colon and in the test on TK-10 renal was more than 100 µM each time. Moreover, the TGI in the test with HCT-116 colon, in the test with NCI-H522 lung, with CCRF-CEM leukemia and with DU-145 prostate was more than 100 µM in each case.

Regarding `Cn1cnc([N+](=O)[O-])c1S(=O)(=O)Oc1ccccc1`, the GI50 in the test with COLO 205 colon is 1.68 µM; in the test with RPMI-8226 leukemia, 4.69 µM; in the test with M14 melanoma, 11.1 µM; with LOX IMVI melanoma it was 3.3 µM; with KM12 colon, 26.2 µM; in the test with TK-10 renal, 1.99 µM. Also, the GI50 with HCT-116 colon is 5.37 µM; with NCI-H522 lung, 0.759 µM; in the test on CCRF-CEM leukemia, 3.75 µM; in the test on DU-145 prostate, 5.6 µM. The TGI in the test on COLO 205 colon is 3.29 µM; in the test on RPMI-8226 leukemia it was 17.6 µM; in the test on M14 melanoma, 27.3 µM; in the test with LOX IMVI melanoma, 9.9 µM; in the test on KM12 colon, more than 78.4 µM; in the test on TK-10 renal, 3.81 µM. The TGI was 13.2 µM with HCT-116 colon, 2.3 µM in the test with NCI-H522 lung, more than 100 µM in the test with CCRF-CEM leukemia and 17 µM with DU-145 prostate.

For the origin of these results see PubChem BioAssay (NCI).
